The test system of one experiment is uterus of OVXed mice. Description: uterine growth in response to E2 in ovariectomized (OVXed) mice. Type of experiment: in vivo. Conditions: E2 0.8 ng/g/day S.C. three days. On the procedure: To investigate E2-mediated increments in proliferation and hyperemia of uteri and changes in the cellular organization of the vaginal epithelium (Xu et al., Science 279:1922-1925 (1998)), 8-week old female RIZ−/− and RIZ+/+mice were ovariectomized (OVXed). At day 15-17 following OVX, mice were treated with S.C. injections of E2 (0.8 ng/g/day; Sigma) or with the vehicle (0.1 ml corn oil) alone for three days. The mice were then sacrificed at day 18 and the uterine wet weight was measured, and vaginal tissue was collected. The tissues were processed as above and vaginal specimens were stained with routine H & E and uterine specimens for PR expression. The thickness of the vaginal epithelium and the cornified layer was photographed and measured as described in FIG. 4 using the Spot 3.2.4. software (Diagnostic Instruments).
The RIZ1 mutant mice are deficient in RIZ1, but not RIZ2, and therefore lack specifically any PR-domain related functions of the gene (Steele-Perkins et al., Genes Dev. 15:2250-2262 (2001)). These animals are viable and fertile and show no gross developmental defects (Steele-Perkins et al., supra (2001)). To determine the physiological role of RIZ1 in steroid hormone action, uterine growth in response to E2 was first examined in ovariectomized (OVXed) mice (Lubahn et al., Proc. Natl. Acad. Sci. USA 90:11162-11166 (1993)). Wild-type or heterozygous RIZ1 mutant mice responded to E2 treatment with a 5.3±0.5 and 5.4±0.4 fold increase in uterine wet weight. […] Uterine response to mechanical traumatization (decidual stimulation) is mainly a progesterone receptor-dependent process (Lydon et al., Genes Dev. 9:2266-2278 (1995)). OVXed mice were treated with a high dose of progesterone and a low dose of E2, followed by mechanical stimulation of the left uterine horn of each animal. The unstimulated […] uterine horn served as a control.

Experiment [1] relates to progesterone receptor gene expression in luminal epithelial cells of the uterus. Description: E2 regulation of uterine progesterone receptor expression (immunohistochemistry). The experiment is classed as in vivo, mice. An excerpt: For RIZ staining, the RIZ rabbit antiserum KG7.1S (Buyse et al., Proc. Natl. Acad. Sci. U.S.A. 92:4467-4471 (1995)) was used at an optimal dilution of 1/200. For ERα staining the polyclonal rabbit anti-ERα antibody (sc-542 Santa Cruz) was used at a dilution of 1/250, and for PR staining the polyclonal rabbit anti-PR antibody (A0098 DAKO) was used at a dilution of 1/100, essentially as described (Tibbetts et al., Biol. Reprod. 59:1143-1152 (1998)). Tissues were fixed in Bouin's solution and processed by routine methods for embeddement in paraffin and sectioning (5 μm). […]
To investigate E2-mediated increments in proliferation and hyperemia of uteri and changes in the cellular organization of the vaginal epithelium (Xu et al., Science 279:1922-1925 (1998)), 8-week old female RIZ−/− and RIZ+/+mice were ovariectomized (OVXed). […] The mice were then sacrificed at day 18 and the uterine wet weight was measured, and vaginal tissue was collected. […] The thickness of the vaginal epithelium and the cornified layer was photographed and measured as described in FIG. 4 using the Spot 3.2.4. software (Diagnostic Instruments).
The epithelial and stromal compartments of the uterus were then analyzed for E2-induced changes in progesterone receptor expression. […]

Experiment [2] concerns RIZ1 HMT activity. Description: HMT activity of RIZ1 immunoprecipitated from E2 treated MCF-7 cells. Type of experiment: cell-based, human. The settings on record: RIZ1 immunoprecipitates. On the procedure: (§1) Methylation reactions (30-40 μl) contained 20 mM Tris-HCl (pH8.0), 0.2 M NaCl, 0.4 mM EDTA, affinity-purified GST-RIZ1 or immunoprecipitation products, free histones (20-40 μg) purified from acid extraction of human cancer cells (A549 or U2OS), and 3 μl (1.65 μCi and 21 pmole)[methyl-^3H]-adenosyl-methionine (Amersham-Pharmacia). Nuclear extracts were prepared according to standard procedures and used for immunoprecipitation. Antisera used for immunoprecipitation were anti-KG7.1S and preimmune serum as described previously (Buyse et al., Proc. Natl. Acad. Sci. U.S.A. 92:4467-4471 (1995)). Similar HMT activity has also been observed with immunoprecipitates using a different serum (data not shown), 1715, which was described previously (Steele-Perkins et al., Genes Dev. 15:2250-2262 (2001)). Various amount of SAH (Sigma) were added in some methylation reactions.
To help understand this apparent paradox, the estrogen effects on RIZ1 HMT activity were examined. Nuclear extracts from control and E2 treated MCF-7 cells were immunoprecipitated by RIZ1 serum anti-KG7.1S or preimmune serum. As expected, HMT activity (labeling of H3 and H1) was detected in the immunoprecipitates of RIZ1 serum but not preimmune serum (FIG. 7A, lanes 1 and 3). […] Thus, E2 appears to regulate RIZ1 HMT activity in a selective way, inhibiting specifically methylation of H3 but not H1.

Experiment [3] concerns histone H1 phosphorylation in MCF7 cells. Description: H1 phosphorylation in MCF7 cells by western blot. The experiment is classed as cell-based, human. Conditions: E2 48 hr. Here is the method: MCF-7 and T47-D breast cancer cells were grown in 15 cm dishes in DMEM with 5% FCS, and 2 mM L-glutamine. Subconfluent cells (4×10^6) were then cultured in DMEM without phenol red, serum or hormones for an additional 3 days, during which media was changed twice daily. Cells were incubated for 24 h with or without hormones (50 nM for E2 and 100 nM for R5020) and infected with an adenovirus vector containing RIZ1 (AdRIZ1; at a concentration of 1×10^10 viral particles/15 cm dish) or the empty vector (AdNull) (He et al., Cancer Res. 58:4238-4244 (1998)). Cells were then grown for an additional 48 h in DMEM without phenol red supplemented with 5% charcoal-treated FCS (Omega Scientific). Cells were harvested and proceeded to immunoprecipitation and immunoblot essentially as described (Buyse et al., Proc. Natl. Acad. Sci. U.S.A. 92:4467-4471 (1995); Liu et al., J. Biol. Chem. 272:2984-2991 (1997)). […]
Because H1 phosphorylation has been linked with transcriptional activation (Bhattacharjee et al., Mol. Cell. Biol. 21:5417-5425 (2001); Dou and Gorovsky, Mol. Cell. 6:225-231 (2000)), it was next asked whether E2 or RIZ1 can enhance H1 phosphorylation. Histones were extracted from MCF7 cells infected with AdRIZ1 or control virus and analyzed by western blot analysis using antibodies that recognize specifically phosphorylated H1.

The next experiment addresses T1, RIZ1 methyltransferase (Homo sapiens, UniProt Q13029, DUP703-703).
T1 construct: Enzyme activity of full-length RIZ1 protein from mammalian cells was next assayed; expressed in transfected cells; host or cells: U2OS human osteosarcoma cells infected with AdRIZ1 adenovirus
Briefly: in vitro methylation of histones by immunoprecipitated RIZ1. Type of experiment: biochemical. The settings on record: 0.42 μM of 3H-SAM. On the procedure:
as §1
In view of RIZ1's role in tumor suppression, it was determined whether S-adenosylhomocysteine (SAH), an analog inhibitor of SAM-dependent methyltransferases whose abnormal accumulation is linked with carcinogenesis, can inhibit RIZ1 enzyme activities. The effect of SAH on the in vitro methylation of histones by immunoprecipitated RIZ1 was tested. A methylation assay was performed in the presence of 0, 0.5 and 5 μM of SAH and 0.42 μM of 3H-SAM.

The target of experiment [4] is protein methyltransferase (PMT). The settings on record: universal inhibitor of PMT; cited from earlier work.
Experiment [5] has as its system RIZ1 HMT activity. Briefly: HMT activity of RIZ1 immunoprecipitates from TPA treated U937 cells. The experiment is classed as cell-based, human. Conditions: 24 hr following TPA treatment. On the procedure: as §1
To further study the contrasting behavior of H1 and H3 methylation, regulation of RIZ1 HMT activity by cell growth was examined, using 12-O-tetradecanoyl-phorbol-13-acetate (TPA) treatment of U937 myeloid leukemic cells as a model system. U937 cells undergo growth arrest and terminal differentiation into monocytes when exposed to TPA. This cell model was selected for study because it has been shown in these cells that RIZ gene expression is only marginally regulated by TPA. […]

The subject of experiment [6] is prostate of orchiectomized male mice. Description: prostate growth in orchiectomized male mice treated with testosterone. Conditions: testosterone 3 mg/kg/day S.C. 7 days. Type of experiment: in vivo. On the procedure: In order to evaluate the response to testosterone, twelve week old male mice were orchiectomized (ORCed) and testicles were wet weighed (Xu et al., Science 279:1922-1925 (1998)). Nine days following ORC, mice were treated during days 9-15 with S.C. injections of testosterone (3 mg/kg/day, Sigma) or vehicle alone (0.1 ml corn oil). On day 16, mice were sacrificed and the prostate and the pars prostate of the urethra (for technical reasons) were removed and wet weighed.
Eight days after orchiectomization, prostates in both wild-type and mutant animals regressed. Injection of testosterone for 7 days stimulated prostate growth in wild-type animals as well as in RIZ1 null animals. Wild-type and RIZ1 null mutant animals had similar ratios of the weight of prostate and urethra to body weight (1.19±0.03 vs. 1.14±0.03; n=10 and 9 mice for +/+ and −/−, respectively; p=0.23). They also had similar ratios of testis weight to body weight (7.7±0.4 vs. 7.4±0.4; n=14 for both genotypes; p=0.58).

This is an account of results in US6989245B2, “Screening, diagnostic and therapeutic methods relating to RIZ” (The Burnham Institute, priority 2001, dated 2006).

T1 sequence (Q13029 with tags, fused parts or gaps DUP703-703): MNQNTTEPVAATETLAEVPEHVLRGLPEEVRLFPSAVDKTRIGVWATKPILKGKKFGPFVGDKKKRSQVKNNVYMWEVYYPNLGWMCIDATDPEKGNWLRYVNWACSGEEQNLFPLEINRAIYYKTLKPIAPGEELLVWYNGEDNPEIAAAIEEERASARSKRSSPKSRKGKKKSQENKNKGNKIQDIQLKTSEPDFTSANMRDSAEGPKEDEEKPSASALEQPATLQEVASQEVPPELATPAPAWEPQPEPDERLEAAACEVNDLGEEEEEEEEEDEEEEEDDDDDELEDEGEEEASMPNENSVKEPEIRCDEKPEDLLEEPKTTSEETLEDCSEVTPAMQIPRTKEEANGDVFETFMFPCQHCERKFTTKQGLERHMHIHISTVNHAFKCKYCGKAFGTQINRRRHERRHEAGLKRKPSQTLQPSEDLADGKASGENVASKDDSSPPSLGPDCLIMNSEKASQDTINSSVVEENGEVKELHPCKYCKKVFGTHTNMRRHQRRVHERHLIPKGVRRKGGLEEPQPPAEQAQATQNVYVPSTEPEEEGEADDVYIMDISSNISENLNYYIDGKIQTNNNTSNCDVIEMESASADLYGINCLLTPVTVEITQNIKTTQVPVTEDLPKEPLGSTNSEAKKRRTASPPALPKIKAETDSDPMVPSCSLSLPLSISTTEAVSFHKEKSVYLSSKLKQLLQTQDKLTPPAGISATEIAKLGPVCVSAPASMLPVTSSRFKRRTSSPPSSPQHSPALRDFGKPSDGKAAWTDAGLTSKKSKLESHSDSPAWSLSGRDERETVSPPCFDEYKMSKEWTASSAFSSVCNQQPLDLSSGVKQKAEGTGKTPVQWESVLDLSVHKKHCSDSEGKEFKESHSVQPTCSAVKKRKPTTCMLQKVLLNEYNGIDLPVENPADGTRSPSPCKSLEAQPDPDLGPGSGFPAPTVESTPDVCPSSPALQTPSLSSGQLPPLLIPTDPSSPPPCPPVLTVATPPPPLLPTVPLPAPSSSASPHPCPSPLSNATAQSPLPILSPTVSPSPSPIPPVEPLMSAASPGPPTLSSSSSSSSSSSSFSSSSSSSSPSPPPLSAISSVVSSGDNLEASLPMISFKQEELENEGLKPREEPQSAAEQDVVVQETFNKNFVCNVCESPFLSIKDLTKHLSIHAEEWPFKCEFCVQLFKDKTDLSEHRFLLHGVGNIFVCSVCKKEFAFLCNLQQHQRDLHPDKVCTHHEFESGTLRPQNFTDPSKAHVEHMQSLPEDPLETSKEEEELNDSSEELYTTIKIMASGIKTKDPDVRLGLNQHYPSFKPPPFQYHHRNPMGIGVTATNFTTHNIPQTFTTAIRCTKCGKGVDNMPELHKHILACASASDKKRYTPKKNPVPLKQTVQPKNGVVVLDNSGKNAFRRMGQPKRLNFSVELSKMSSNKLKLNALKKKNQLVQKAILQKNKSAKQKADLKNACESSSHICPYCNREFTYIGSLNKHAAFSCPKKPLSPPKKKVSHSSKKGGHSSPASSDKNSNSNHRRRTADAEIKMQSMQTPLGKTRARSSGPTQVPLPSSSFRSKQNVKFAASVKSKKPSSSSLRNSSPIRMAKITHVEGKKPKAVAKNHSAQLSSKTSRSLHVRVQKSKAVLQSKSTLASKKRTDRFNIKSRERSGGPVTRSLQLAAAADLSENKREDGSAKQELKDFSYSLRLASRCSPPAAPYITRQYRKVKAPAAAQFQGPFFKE

As for `C[C@]12CC[C@@H]3c4ccc(O)cc4CC[C@H]3[C@@H]1CC[C@@H]2O` [E2, estradiol], the “fold increase in uterine wet weight” value with uterus of OVXed mice (heterozygous RIZ1 mutant OVXed mice) was 5.4±0.4 fold; in the experiment on uterus of OVXed mice (homozygous RIZ1 mutant OVXed mice), “about 3.7±0.4 fold”; in the experiment on uterus of OVXed mice (wild-type OVXed mice), 5.3±0.5 fold. The “repression of progesterone receptor gene expression” value in experiment [1] (in the absence of RIZ1) is listed as 2 fold; in experiment [1] (in the presence of RIZ1) it was roughly 20 fold. The “H1 methylation by RIZ1” value with RIZ1 HMT activity [2] is listed as “maintained or slightly enhanced”. Moreover, the “H3 methylation by RIZ1” value in the experiment on RIZ1 HMT activity [2] is reported as “decreased”. In addition, in experiment [3], the H1 phosphorylation entry is listed as “increased”.
The Ki is the dissociation constant of the complex between target and ligand, obtained from inhibition or displacement. For the compound `Nc1ncnc2c1ncn2[C@@H]1O[C@H](CSCC[C@H](N)C(=O)O)[C@@H](O)[C@H]1O` [SAH, S-adenosylhomocysteine], the figures for the “Histone methylation by RIZ1” value at RIZ1 methyltransferase (0.5 μM of SAH) and on RIZ1 methyltransferase (5 μM of SAH) were “partially inhibited” and “completely inhibited”, respectively. For the same compound, in experiment [4], the Ki is 5 to 12 µM.
In the case of `CCCCCCCCCCCCCC(=O)O[C@@H]1[C@@H](C)[C@@]2(O)[C@@H](C=C(CO)C[C@]3(O)C(=O)C(C)=C[C@@H]23)[C@@H]2C(C)(C)[C@]12OC(C)=O` [TPA, 12-O-tetradecanoyl-phorbol-13-acetate], in the experiment with RIZ1 HMT activity [5], the “H1 methylation by RIZ1” value is “slightly decreased” and the “H3 methylation by RIZ1” value is “increased”.
In the case of `C[C@]12CC[C@H]3[C@@H](CCC4=CC(=O)CC[C@@]43C)[C@@H]1CC[C@@H]2O` [testosterone], the “ratio of the weight of prostate and urethra to body weight” value was 1.14±0.03 in experiment [6] (RIZ1 null mutant orchiectomized mice, n=9) and 1.19±0.03 in experiment [6] (wild-type orchiectomized mice, n=10).
